“Also recorded” adds a separate entry of the source.
How the values were obtained:
[1] = system: LAB isolates from commercial ethanol plants (multiple species of Lactobacillus, Lactococcus, Weissella, Leuconostoc, Pediococcus, Enterococcus, and …); experiment: Inhibitory activity spectrum: culture supernatant spotted onto indicator bacterial lawns; format: cell-based, lactic acid bacteria
Method: (§1) FIG. 1 is a schematic representation of the proteins responsible for producing the bacteriocin of the invention. In the discovery of the unique broad spectrum bacteriocin of this invention, indigenous LAB were isolated and purified from the fermentation mash of the commercial ethanol fermentation plants. The identities of the isolates were determined to the species level based on their 16s rDNA sequences. The capability of the isolated LAB strains to produce antimicrobial compounds was identified. Culture supernatants of the strains to be tested were spotted onto individual indicator bacterial culture lawns, which were prepared using a variety of LAB strains of different genera. […] Any positive activity of bacterial growth inhibition from the tested culture supernatant was confirmed again in the same manner, and the inhibitory activity spectrum of the antimicrobial compound is determined. […]
(§2) FIG. 1 is a schematic representation of the proteins responsible for producing the bacteriocin of the invention. The inhibitory activity spectrum of GP15cin against different strains was determined. The active concentration range and the minimum inhibition concentration of the bacteriocin are determined using different indicator strains. The activity levels of the bacteriocin present in the raw bacterial culture supernatants and/or in partially purified mixtures were also determined. […]

[2] = system: non-LAB isolates, such as strains of Staphylococcus, Enterobacter, Bacillus, and Clostridium; experiment: as above; format: cell-based
Method: as §1, §2

[3] = Stability of bacteriocin activity at different temperatures and pH values; format: physicochemical
From the text: FIG. 1 is a schematic representation of the proteins responsible for producing the bacteriocin of the invention. Either using crude, partially or completely purified form, the chemical characteristics of the bacteriocins can be determined. The determined characteristics include their sensitivities to different enzymes, stability at different temperatures and pH values, etc. Sensitivity of the bacteriocin to proteolytic and lipolytic enzymes, such as trypsin, pepsin, pronase, lipase, etc, was tested. The proteinaceus nature of GP15cin was confirmed. […] The same bacteriocin has optimal activity in the pH range of 4-10.

[4] = system: indigenous contaminating bacteria in fermentation mash from commercial ethanol plants; experiment: Reduction of indigenous contaminating bacterial levels in ethanol fermentation mash; format: cell-based; conditions: crude form
Method: FIG. 1 is a schematic representation of the proteins responsible for producing the bacteriocin of the invention. The inhibitory activity spectrum of GP15cin against different strains was determined. The active concentration range and the minimum inhibition concentration of the bacteriocin are determined using different indicator strains. The activity levels of the bacteriocin present in the raw bacterial culture supernatants and/or in partially purified mixtures were also determined. […] FIG. 2 to FIG. 11 show the effectiveness of GP15cin in reducing the total levels of indigenous bacteria presented in fermentation mash from different commercial ethanol plants. The exact identities of the indigenous bacteria population in different plants are unknown and are likely highly diverse.
GP15cin described herein were produced by a L. plantarum strain, which was isolated from the indigenous LAB populations present during commercial ethanol fermentation. GP15cin can act towards species and/or strains of similar indigenous LAB populations and thus can be used as an effective control for contaminating LAB. […] Either fermentor or mash cooler mash samples were collected from 6 different commercial ethanol plants on 13 different days from 2012 to 2014. Results of 15 independent tests are shown. […]

contaminating LAB = experiment: Lactic acid and acetic acid levels during laboratory-scale ethanol fermentation; format: cell-based, lactic acid bacteria
From the text: GP15cin described herein were produced by a L. plantarum strain, which was isolated from the indigenous LAB populations present during commercial ethanol fermentation. GP15cin can act towards species and/or strains of similar indigenous LAB populations and thus can be used as an effective control for contaminating LAB. […] Either fermentor or mash cooler mash samples were collected from 6 different commercial ethanol plants on 13 different days from 2012 to 2014. Results of 15 independent tests are shown. […] It is likely that the effects on controlling contaminating bacteria and acids will be even more significant if a higher dose of […] is used. The presented results highlight the feasibility of GP15cin application for control of unwanted bacteria in ethanol and other biofuel industries.

[5] = system: Lactobacillus GP15 (production host); experiment: Activity against own production host; format: cell-based, Lactobacillus plantarum
From the text: As noted above, GP-15cin may be applied alone or in combination with other bacteriocin and/or bacteriophage virulent for unwanted bacteria in the same system. Bacteriocin producing hosts are immune to the bacteriocins produced by themselves. GP-15cin is therefore not active against its own production host, […]. […] Therefore it is desirable to combine GP-15cin with a different bacteriocin in a cocktail that will kill the bacteria insensitive to GP15cin. Additionally GP-15cin may be combined with other antimicrobial agents to broaden the scope of effectiveness against the range of unwanted bacteria that are targeted. For example the combination of bacteriocin and bacteriophage (phage) ensures a broader inhibition spectrum and more efficient control of the bacteria contamination. Phage targeting these non-sensitive strains can be isolated, and be combined with the bacteriocin for a complete control of contaminating bacteria.

[6] = system: Lactobacillus fermentum strain 0315-25; experiment: Batch culture growth inhibition, bacteriocin and phage alone and combined; format: cell-based; conditions: 24 h
Method: Bacteriocin alone, bacteriophage alone, and bacteriocin combined with phage were tested against Lactobacillus in batch culture systems. To be specific, logarithmic growth phase cultures of Lactobacillus fermentum strain 0315-25 (OD600 being 0.1) were treated either with single agent at different doses, such as bacteriocin GP15cin alone at different doses (0.1%, 1%, and 10%, v/v), or a phage designated herein as LferInf alone at different MOIs (0.1, 1, and 10), or two agents combined together at different doses, such as 0.1% GP15cin plus LferInf at MOI of 0.1, 0.1% GP15cin plus phage LferInf at MOI of 1, 1% GP15cin plus LferInf at MOI of 0.1, and 1% GP15cin plus phage LferInf at MOI of 1. Culture without any treatment was served as control. LferInf is a bacteriophage isolated from wastewater and found to be effective against a broad host range of Lactobacillus and described in more detail below. The growth of bacteria was monitored for 24 h, and the treatment effects were compared.

plantaricin W [GP15cin]
killing spectrum against a list of bacteria ([1]; LAB genera plus Staphylococcus, Enterobacter, Bacillus, Clostridium): extremely broad killing spectrum
killing activity against LAB isolates ([1]; LAB isolates from commercial ethanol plants): broad range killing activity against the vast majority of the LAB isolates
killing activity against non-LAB isolates [2]: showed killing activity
pH range of optimal activity [3]: 4-10 pH
loss of activity / heat resistance ([3]; after 2 hours at 120° C.): not a complete loss of activity
reversibility of activity loss ([3]; extreme pH values): does not appear to be reversible
loss of activity ([3]; pH 12): complete loss of activity
reduction in activity ([3]; pH values of 1, 2, 3, and 11): 50%
reduction in activity ([3]; temperature of 12.0° C. (so in the source)): 87.5%
reduction in activity ([3]; temperatures of 65-100° C.): 50%
time in which the reduction effect was seen [4]: ≥ 2 h
reduction of indigenous contaminating bacteria levels ([4]; mash from 6 commercial ethanol plants, 15 independent tests): consistent reduction effects seen in all tests; also recorded: reduced indigenous contaminating bacteria levels in all mash samples
acetic acid level produced by contaminating LAB (contaminating LAB): significantly reduced
lactic acid level produced by contaminating LAB (contaminating LAB): significantly reduced
activity against its own production host [5]: not active
growth of L. fermentum compared to control ([6]; GP15cin alone at 0.1% v/v): all treatment, except GP15cin used at 0.1%, suppressed the growth
growth of L. fermentum compared to control ([6]; GP15cin alone at 1% and 10% v/v): suppressed the growth

Reference: patent US20150320829A1, “Broad Spectrum Bacteriocin for Control of Unwanted Bacteria” (priority 2014, published 2015)
